Earlier results in patent US20200147064A1, “Reduction of Pro-Inflammatory HDL Using a Leukotriene Inhibitor” (Autoimmune Pharma LLC, priority 2017, published 2020).

System: leukotriene production
Details: statement in words, cited from Stock, N S et al., J Med Chem. 2011

CCOc1ccc(-c2ccc(Cn3c(CC(C)(C)C(=O)O)c(SC(C)(C)C)c4cc(OCc5ccc(C)cn5)ccc43)cc2)cn1 [Compound 2-107, 3-[3-tert-butylsulfanyl-1-[4-(6-ethoxy-pyridin-3-yl)-benzyl]-5-(5-methyl-pyridin-2-ylmethoxy)-1H-indol-2-yl]-2,2-dimethyl-propionic acid]
inhibitor of leukotriene production in vivo: potent inhibitor of leukotriene production in vivo
